Experimental data published in US10034476B2, “Insecticidal phenyl-or pyridyl-piperdine compounds” (Syngenta Participations AG, priority 2008, dated 2018).

Tests used:
Type in all cases: in vivo
Plutella xylostella = Plutella xylostella (diamond back moth) artificial diet test; details: 144 h, 200 ppm (concentration in well 18 ppm), L2 larvae, 6 days, larval mortality, growth regulation
Method: Plutella xylostella (Diamond Back Moth): 24-well microtiter plate (MTP) with artificial diet was treated with test solutions at an application rate of 200 ppm (concentration in well 18 ppm) by pipetting. After drying, the MTP's were infested with L2 larvae (7-12 per well). After an incubation period of 6 days, samples were checked for larval mortality and growth regulation.

Spodoptera littoralis = Spodoptera littoralis (Egyptian cotton leafworm) cotton leaf disc spray test; details: foliar, 72 h, 200 ppm spray on cotton leaf discs, L1 larvae, 3 DAT, mortality, feeding behavior, growth regulation
Description: Spodoptera littoralis (Egyptian Cotton Leafworm) Cotton leaf discs were placed on agar in a 24-well microtiter plate and sprayed with test solutions at an application rate of 200 ppm. After drying, the leaf discs were infested with 5 L1 larvae. The samples were checked for mortality, feeding behavior, and growth regulation 3 days after treatment (DAT).

Diabrotica balteata = Diabrotica balteata (corn root worm) artificial diet test; details: 120 h, 200 ppm (concentration in well 18 ppm), L2 larvae, 5 days, larval mortality, growth regulation
Method: Diabrotica Balteata (Corn Root Worm): A 24-well microtiter plate (MTP) with artificial diet was treated with test solutions at an application rate of 200 ppm (concentration in well 18 ppm) by pipetting. After drying, the MTP's were infested with larvae (L2) (6-10 per well). After an incubation period of 5 days, samples were checked for larval mortality, and growth regulation.

Heliothis virescens = Heliothis virescens (tobacco budworm) egg/artificial diet test; details: 96 h, 200 ppm (concentration in well 18 ppm), eggs 0-24 h old on artificial diet, 4 days, egg mortality, larval mortality, growth regulation
Method: Heliothis virescens (Tobacco Budworm): Eggs (0-24 h old) were placed in 24-well microtiter plate on artificial diet and treated with test solutions at an application rate of 200 ppm (concentration in well 18 ppm) by pipetting. After an incubation period of 4 days, samples were checked for egg mortality, larval mortality, and growth regulation.

Measured: pest or weed control at 200 ppm

O=C(Nc1cc(F)c(F)cc1C1CCN(Cc2ccc(-c3ccc(F)cc3)cc2)CC1)c1ccnc(Cl)c1 [Compound A3, 2-chloro-N-{4,5-difluoro-2-[1-(4′-fluoro-biphenyl-4-ylmethyl)-piperidin-4-yl]-phenyl}-isonicotinamide]
≥ 80%: all assays above

O=C(Nc1cc(F)c(F)cc1C1CC[N+]([O-])(Cc2ccc(-c3ccc(F)cc3)cc2)CC1)c1ccnc(Cl)c1 (stereo not drawn) [Compound B1, 2-chloro-N-{4,5-difluoro-2-[1-(4′-fluoro-biphenyl-4-ylmethyl)-1-oxy-piperidin-4-yl]-phenyl}-isonicotinamide]
≥ 80%: all assays above

O=C(Nc1cc(F)c(Br)nc1C1CCN(Cc2ccc(-c3ccc(F)cc3)cc2)CC1)c1ccnc(Cl)c1 [Compound C5, N-[6-bromo-5-fluoro-1′-(4′-fluoro-biphenyl-4-ylmethyl)-1′,2′,3′,4′,5′,6′-hexahydro-[2,4′]bipyridinyl-3-yl]-2-chloro-isonicotinamide]
≥ 80%: all assays above

O=C(Nc1ccc(C(F)F)nc1C1CCN(Cc2ccc(-c3ccc(F)cc3)cc2)CC1)c1ccnc(Cl)c1 [Compound C6]
≥ 80%: all assays above

O=C(Nc1cc(Cl)c(OCC(F)(F)F)nc1C1CCN(Cc2ccc(-c3ccc(F)cc3)cc2)CC1)c1ccnc(Cl)c1 [Compound C9, 2-chloro-N-[5-chloro-1′-(4′-fluoro-biphenyl-4-ylmethyl)-6-(2,2,2-trifluoro-ethoxy)-1′,2′,3′,4′,5′,6′-hexahydro-[2,4′]bipyridinyl-3-yl]-isonicotinamide]
≥ 80%: all assays above

COc1ccc(NC(=O)c2ccnc(Cl)c2)c(C2CCN(Cc3ccc(-c4ccc(F)cc4)cc3)CC2)n1 [Compound C10, 2-chloro-N-[1′-(4′-fluoro-biphenyl-4-ylmethyl)-6-methoxy-1′,2′,3′,4′,5′,6′-hexahydro-[2,4′]bipyridinyl-3-yl]-isonicotinamide]
≥ 80%: all assays above

C=Cc1ccc(NC(=O)c2ccnc(Cl)c2)c(C2CCN(Cc3ccc(-c4ccc(F)cc4)cc3)CC2)n1 [Compound C11, 2-chloro-N-[1′-(4′-fluoro-biphenyl-4-ylmethyl)-6-vinyl-1′,2′,3′,4′,5′,6′-hexahydro-[2,4′]bipyridinyl-3-yl]-isonicotinamide]
≥ 80%: all assays above

O=C(Nc1cc(Cl)c(C2CC2)nc1C1CCN(Cc2ccc(-c3ccc(F)cc3)cc2)CC1)c1ccnc(Cl)c1 [Compound C13, 2-chloro-N-[5-chloro-6-cyclopropyl-1′-(4′-fluoro-biphenyl-4-ylmethyl)-1′,2′,3′,4′,5′,6′-hexahydro-[2,4′]bipyridinyl-3-yl]-isonicotinamide]
≥ 80%: all assays above

O=C(Nc1cc(C(F)(F)F)c(Br)nc1C1CCN(Cc2ccc(-c3ccc(F)cc3)cc2)CC1)c1ccnc(Cl)c1 [Compound C15]
≥ 80%: all assays above

O=C(Nc1cc(C(F)(F)F)c(Cl)nc1C1CCN(Cc2ccc(-c3ccc(F)cc3)cc2)CC1)c1ccnc(Cl)c1 [Compound C16]
≥ 80%: all assays above

O=C(Nc1cc(F)c(Cl)nc1C1CCN(Cc2ccc(-c3ccc(F)cc3)cc2)CC1)c1ccnc(Cl)c1 [Compound C17, 2-chloro-N-[6-chloro-5-fluoro-1′-(4′-fluoro-biphenyl-4-ylmethyl)-1′,2′,3′,4′,5′,6′-hexahydro-[2,4′]bipyridinyl-3-yl]-isonicotinamide]
≥ 80%: all assays above

O=C(Nc1cc(Br)cnc1C1CCN(Cc2ccc(-c3ccc(F)cc3)cc2)CC1)c1ccnc(Cl)c1 [Compound C23, N-[5-bromo-1′-(4′-fluoro-biphenyl-4-ylmethyl)-1′,2′,3′,4′,5′,6′-hexahydro-[2,4′]bipyridinyl-3-yl]-2-chloro-isonicotinamide]
≥ 80%: all assays above

O=C(Nc1cc(Br)c(Cl)nc1C1CCN(Cc2ccc(-c3ccc(F)cc3)cc2)CC1)c1ccnc(Cl)c1 [Compound C24, N-[5-bromo-6-chloro-1′-(4′-fluoro-biphenyl-4-ylmethyl)-1′,2′,3′,4′,5′,6′-hexahydro-[2,4′]bipyridinyl-3-yl]-2-chloro-isonicotinamide]
≥ 80%: all assays above

O=C(Nc1cc(F)c(F)nc1C1CCN(Cc2ccc(-c3ccc(F)cc3)cc2)CC1)c1ccnc(Cl)c1 [Compound C25, 2-chloro-N-{1′-(4′-fluoro-biphenyl-4-ylmethyl)-5,6-difluoro-1′,2′,3′,4′,5′,6′-hexahydro-[2,4′]bipyridinyl-3-yl}-isonicotinamide]
≥ 80%: all assays above

Cc1cc(NC(=O)c2ccnc(Cl)c2)c(C2CCN(Cc3ccc(-c4ccc(F)cc4)cc3)CC2)nc1Cl [Compound C26, 2-chloro-N-[6-chloro-1′-(4′-fluoro-biphenyl-4-ylmethyl)-5-methyl-1′,2′,3′,4′,5′,6′-hexahydro-[2,4′]bipyridinyl-3-yl]-isonicotinamide]
≥ 80%: all assays above

O=C(Nc1c(C2CCN(Cc3ccc(-c4ccc(F)cc4)cc3)CC2)nc(Cl)c(Cl)c1Cl)c1ccnc(Cl)c1 [Compound C30, 2-chloro-N-{4,5,6-trichloro-1′-(4′-fluoro-biphenyl-4-ylmethyl)-1′,2′,3′,4′,5′,6′-hexahydro-[2,4′]bipyridinyl-3-yl}-isonicotinamide]
≥ 80%: all assays above

O=C(Nc1cc(C(F)(F)F)c(F)nc1C1CCN(Cc2ccc(-c3ccc(F)cc3)cc2)CC1)c1ccnc(Cl)c1 [Compound C31, 2-chloro-N-{1′-(4′-fluoro-biphenyl-4-ylmethyl)-6-fluoro-5-trifluoromethyl-1′,2′,3′,4′,5′,6′-hexahydro-[2,4′]bipyridinyl-3-yl}-isonicotinamide]
≥ 80%: all assays above

O=C(Nc1ccc(OC(F)F)nc1C1CCN(Cc2ccc(-c3ccc(F)cc3)cc2)CC1)c1ccnc(Cl)c1 [Compound C40, 2-chloro-N-{1′-(4′-fluoro-biphenyl-4-ylmethyl)-6-difluoromethoxy-1′,2′,3′,4′,5′,6′-hexahydro-[2,4′]bipyridinyl-3-yl}-isonicotinamide]
≥ 80%: all assays above
